Test results reported in ChEMBL document CHEMBL4219088, “Novel 4-aminoquinazoline derivatives induce growth inhibition, cell cycle arrest and apoptosis via PI3Kα inhibition” (Bioorg Med Chem, 2018).

What was measured:
Assay type in all cases: functional, cell-based
HCT-116 = assay: Antiproliferative activity against human HCT116 cells after 72 hrs by sulforhodamine B assay; conditions: HCT-116, 72 h
SK-HEP1 = assay: Antiproliferative activity against human SKHEP1 cells after 72 hrs by sulforhodamine B assay; conditions: SK-HEP1, 72 h
MDA-MB-231 = assay: Antiproliferative activity against human MDA-MB-231 cells after 72 hrs by sulforhodamine B assay; conditions: MDA-MB-231, 72 h
SNU-638 = assay: Antiproliferative activity against human SNU638 cells after 72 hrs by sulforhodamine B assay; conditions: SNU-638, 72 h
A549 = assay: Antiproliferative activity against human A549 cells after 72 hrs by sulforhodamine B assay; conditions: A549, 72 h
MCF7 = assay: Antiproliferative activity against human MCF7 cells after 72 hrs by sulforhodamine B assay; conditions: MCF7, 72 h

Row | IC50 (HCT-116) | IC50 (SK-HEP1) | IC50 (MDA-MB-231) | IC50 (SNU-638) | IC50 (A549) | IC50 (MCF7) | Compound
1 | 1440 nM | 4720 nM | 710 nM | 620 nM | 940 nM | 1020 nM | COc1ncc(-c2ccc3ncnc(NCCN(C)C)c3c2)cc1NS(=O)(=O)c1ccc(F)cc1F
2 | 3200 nM | 9500 nM | 1220 nM | 1210 nM | 2420 nM | 1230 nM | COc1ncc(-c2ccc3ncnc(NCCN(C)C)c3c2)cc1NS(=O)(=O)c1ccc(F)cc1
3 | 490 nM | 860 nM | 880 nM | 1260 nM | 3520 nM | 4730 nM | CCCCS(=O)(=O)Nc1cc(-c2ccc3ncnc(NCCCN(C)C)c3c2)cnc1OC
4 | 1740 nM | 1140 nM | 2580 nM | 980 nM | 3140 nM | 4590 nM | CCCCS(=O)(=O)Nc1cc(-c2ccc3ncnc(NCCCN4CCOCC4)c3c2)cnc1OC
5 | 590 nM | 440 nM | 420 nM | 610 nM | 1560 nM | 10800 nM | CCCCS(=O)(=O)Nc1cc(-c2ccc3ncnc(NCCN4CCOCC4)c3c2)cnc1OC
6 | 18800 nM | 13400 nM | 8960 nM | 4520 nM | 9820 nM | 13500 nM | COc1ncc(-c2ccc3ncnc(NCCCN4CCOCC4)c3c2)cc1NS(=O)(=O)c1ccc(F)cc1F
